Assay results published in PMC6271638, “Synthesis of New 1,2,3-Triazol-4-yl-quinazoline Nucleoside and Acyclonucleoside Analogues” (Molecules, 2014).
Where two headings read alike, the source gives them in different places.

Assays:
[1] = test system: HCV replicon (genotype 1b, CON1); test: Anti-HCV activity, 3-day cell culture assay in HCV-replicon-containing cell line AVA5; format: cell-based, hepatitis C virus; conditions: AVA5 cells (genotype 1b, CON1), 3-day assay, read-out: IC50, concentration of compound achieving 50% inhibition of the replicon system
Protocol: Antiviral activity was assessed in a 3-day cell culture assay using the HCV-replicon-containing cell line, AVA5 (genotype 1b, CON1) (provided to GUMC by Apath, Inc., Brooklyn, NY, USA) as previously described.

[2] = test system: Huh 5.2 cells; test: Cytotoxicity (50% extinction of cells) in the anti-HCV replicon assay; format: cell-based; conditions: 3-day cell culture assay, read-out: CC50, concentration of compound required for 50% extinction of Huh 5.2 cells
[3] = as above; format: cell-based; conditions: human; Huh 5.2 cells; 3-day cell culture assay; read-out: CC50, concentration of compound required for 50% extinction of Huh 5.2 cells

3-((1-(β-D-Ribofuranos-1-yl)-1,2,3-triazol-4-yl)methyl)-2-methylquinazolin-4-one [Compound 7d]
IC50 [1]: > 10 µM
CC50 [2]: ≥ 100 µM

3-((1-(β-D-Ribofuranos-1-yl)-1,2,3-triazol-4-yl)methyl)quinazolin-4-one [Compound 7g]
IC50 [1]: > 10 µM
CC50 [2]: ≥ 100 µM

4-((1-(β-D-Ribofuranos-1-yl)-1,2,3-triazol-4-yl)methoxy)-2-phenylquinazoline [Compound 7a]
IC50 [1]: > 10 µM
CC50 [2]: ≥ 50 µM

C[C@@]1(O)[C@H](O)[C@@H](CO)O[C@H]1n1ccc(N)nc1=O [Compound 2CmeCyt, reference compound]
IC50 [1]: 1.5 µM
CC50 [2]: > 300 µM

OCCOCn1cc(COc2nc(-c3ccccc3)nc3ccccc23)nn1 [Compound 7b, 2-((4-((2-Phenylquinazolin-4-yloxy)methyl)-1,2,3-triazol-1-yl)methoxy)etanol]
IC50 ([1]; Hepatitis C virus, 72 h): > 10 µM
CC50 at 3 day [3]: ≥ 100 µM

OCCCCn1cc(COc2nc(-c3ccccc3)nc3ccccc23)nn1 [Compound 7c, 4-(4-((2-Phenylquinazolin-4-yloxy)methyl)-1,2,3-triazol-1-yl)butan-1-ol]
IC50 ([1]; Hepatitis C virus, 72 h): > 10 µM
CC50 at 3 day [3]: ≥ 50 µM

Cc1nc2ccccc2c(=O)n1Cc1cn(COCCO)nn1 [Compound 7e, 2-((4-((2-Methyl-4-oxoquinazolin-3-yl)methyl)-1,2,3-triazol-1-yl)methoxy)ethanol]
IC50 ([1]; Hepatitis C virus, 72 h): > 10 µM
CC50 at 3 day [3]: ≥ 50 µM

Cc1nc2ccccc2c(=O)n1Cc1cn(CCCCO)nn1 [Compound 7f, 4-(4-((2-Methyl-4-oxoquinazolin-3-yl)methyl)-1,2,3-triazol-1-yl)butan-1-ol]
IC50 ([1]; Hepatitis C virus, 72 h): > 10 µM
CC50 at 3 day [3]: ≥ 50 µM

O=c1c2ccccc2ncn1Cc1cn(COCCO)nn1 [Compound 7h, 2-((4-((4-Oxoquinazolin-3-yl)methyl)-1,2,3-triazol-1-yl)methoxy)ethanol]
IC50 ([1]; Hepatitis C virus, 72 h): > 10 µM
CC50 at 3 day [3]: ≥ 50 µM

O=c1c2ccccc2ncn1Cc1cn(CCCCO)nn1 [Compound 7i, 4-(4-((4-Oxoquinazolin-3-yl)methyl)-1H-1,2,3-triazol-1-yl)butan-1-ol]
IC50 ([1]; Hepatitis C virus, 72 h): > 10 µM
CC50 at 3 day [3]: ≥ 50 µM
